Assay results from patent publication US20050142581A1, “Microrna as ligands and target molecules” (priority 2003, published 2005).
Oligonucleotides are written 5' to 3', each unit as a sugar letter and its base; * is a phosphorothioate linkage, no mark a phosphodiester; rarer units and linkages stand in square brackets, end groups in braces. Plain capitals give the bases only. e = 2'-O-(2-methoxyethyl) (MOE); [5mC] = 5-methylcytosine; d = 2'-deoxy (DNA)

Each substance was assayed on human CD40 mRNA (assay: Inhibition of CD40 mRNA levels by oligonucleotides (real-time RT-PCR)). Settings: 2'-MOE gapmers, 18 nucleotides, phosphorothioate throughout; averaged from three experiments.
Format: cell-based
Design: concentration or dose not given beside the values
Procedure, shortened: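 Cells at ~80% confluency were transfected with oligonucleotide at 150 nM final using Lipofectin 3.75 μg/ml for 4 h and harvested 16 h after treatment. Poly(A)+ mRNA was taken for TaqMan real-time RT-PCR of CD40, and percent inhibition was derived from a standard curve of untreated control mRNA.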
In the case of “19268 (e[5mC]*eT*eG*eT*dT*dG*dC*dA*dC*dA*dA*dC*dC*dA*eG*eG*eT*e[5mC]; antisense) [compound 19268]”, the “% Inhibition (Inhibition of CD40 mRNA Levels by Chimeric Phosphorothioate Oligonucleotides)” value (“% Inhibition” below) is reported as 82.32%. In the case of “19269 (eG*eT*eT*eT*dG*dT*dG*dC*dC*dT*dG*dC*dC*dT*eG*eT*eT*eG; antisense) [compound 19269]”, the “% Inhibition” value is reported as 70.10%. For “19270 (eG*eT*e[5mC]*eT*dT*dG*dT*dT*dT*dG*dT*dG*dC*dC*eT*eG*e[5mC]*e[5mC]; antisense) [compound 19270]”, the “% Inhibition” value was 68.95%. In the case of “19271 (e[5mC]*e[5mC]*eA*e[5mC]*dA*dG*dA*dC*dA*dA*dC*dA*dT*dC*eA*eG*eT*e[5mC]; antisense) [compound 19271]”, the “% Inhibition” value is reported as 11.22%. With “19272 (e[5mC]*eT*eG*eG*dG*dG*dA*dC*dC*dA*dC*dA*dG*dA*e[5mC]*eA*eA*e[5mC]; antisense) [compound 19272]” the “% Inhibition” value was 9.04%. In the case of “19273 (eT*e[5mC]*eA*eG*dC*dC*dG*dA*dT*dC*dC*dT*dG*dG*eG*eG*eA*e[5mC]; antisense) [compound 19273]”, the “% Inhibition” value is reported as 0.00%. For “19274 (e[5mC]*eA*e[5mC]*e[5mC]*dA*dC*dC*dA*dG*dG*dG*dC*dT*dC*eT*e[5mC]*eA*eG; antisense) [compound 19274]”, the “% Inhibition” value was 23.08%. With “19275 (eG*eG*eG*eA*dT*dC*dA*dC*dC*dA*dC*dC*dA*dG*eG*eG*e[5mC]*eT; antisense) [compound 19275]” the “% Inhibition” value was 57.94%. “19276 (eG*eA*eG*eG*dA*dT*dG*dG*dC*dA*dA*dA*dC*dA*eG*eG*eA*eT; antisense) [compound 19276]” was tested, and the “% Inhibition” value was 49.14%. “19277 (eA*e[5mC]*e[5mC]*eA*dG*dC*dA*dC*dC*dA*dA*dG*dA*dG*eG*eA*eT*eG; antisense) [compound 19277]” was tested, and the “% Inhibition” value was 3.48%. In the case of “19278 (eT*eT*eT*eT*dG*dA*dT*dA*dA*dA*dG*dA*dC*dC*eA*eG*e[5mC]*eA; antisense) [compound 19278]”, the “% Inhibition” value is reported as 30.58%. With “19279 (eT*eA*eT*eT*dG*dG*dT*dT*dG*dG*dC*dT*dT*dC*eT*eT*eG*eG; antisense) [compound 19279]” the “% Inhibition” value was 49.26%. In the case of “19280 (eG*eG*eG*eT*dT*dC*dC*dT*dG*dC*dT*dT*dG*dG*eG*eG*eT*eG; antisense) [compound 19280]”, the “% Inhibition” value is reported as 13.95%. “19281 (eG*eT*e[5mC]*eG*dG*dG*dA*dA*dA*dA*dT*dT*dG*dA*eT*e[5mC]*eT*e[5mC]; antisense) [compound 19281]” was tested, and the “% Inhibition” value was 54.78%. In the case of “19282 (eG*eA*eT*e[5mC]*dG*dT*dC*dG*dG*dG*dA*dA*dA*dA*eT*eT*eG*eA; antisense) [compound 19282]”, the “% Inhibition” value is reported as 0.00%. For “19283 (eG*eG*eA*eG*dC*dC*dA*dG*dG*dA*dA*dG*dA*dT*e[5mC]*eG*eT*e[5mC]; antisense) [compound 19283]”, the “% Inhibition” value was 69.47%. “19284 (eT*eG*eG*eA*dG*dC*dC*dA*dG*dG*dA*dA*dG*dA*eT*e[5mC]*eG*eT; antisense) [compound 19284]” was tested, and the “% Inhibition” value was 54.48%. In the case of “19285 (eT*eG*eG*eA*dG*dC*dA*dG*dC*dA*dG*dT*dG*dT*eT*eG*eG*eA; antisense) [compound 19285]”, the “% Inhibition” value is reported as 15.17%. For “19286 (eG*eT*eA*eA*dA*dG*dT*dC*dT*dC*dC*dT*dG*dC*eA*e[5mC]*eT*eG; antisense) [compound 19286]”, the “% Inhibition” value was 30.62%. With “19288 (e[5mC]*eG*eG*eT*dT*dG*dG*dC*dA*dT*dC*dC*dA*dT*eG*eT*eA*eA; antisense) [compound 19288]” the “% Inhibition” value was 34.49%. In the case of “19289 (e[5mC]*eT*e[5mC]*eT*dT*dT*dG*dC*dC*dA*dT*dC*dC*dT*e[5mC]*e[5mC]*eT*eG; antisense) [compound 19289]”, the “% Inhibition” value is reported as 41.84%. With “19290 (e[5mC]*eT*eG*eT*dC*dT*dC*dT*dC*dC*dT*dG*dC*dA*e[5mC]*eT*eG*eA; antisense) [compound 19290]” the “% Inhibition” value was 25.68%. For “19291 (eG*eG*eT*eG*dC*dA*dG*dC*dC*dT*dC*dA*dC*dT*eG*eT*e[5mC]*eT; antisense) [compound 19291]”, the “% Inhibition” value was 76.27%. With “19292 (eA*eA*e[5mC]*eT*dG*dC*dC*dT*dG*dT*dT*dT*dG*dC*e[5mC]*e[5mC]*eA*e[5mC]; antisense) [compound 19292]” the “% Inhibition” value was 63.34%. For “19293 (e[5mC]*eT*eT*e[5mC]*dT*dG*dC*dC*dT*dG*dC*dA*dC*dC*e[5mC]*e[5mC]*eT*eG; antisense) [compound 19293]”, the “% Inhibition” value was 0.00%. With “19294 (eA*e[5mC]*eT*eG*dA*dC*dT*dG*dG*dG*dC*dA*dT*dA*eG*e[5mC]*eT*e[5mC]; antisense) [compound 19294]” the “% Inhibition” value was 11.55%.
